Measurements taken from BindingDB's records for doi:10.1111/j.1747-0285.2007.00514.x (University of Maryland, 2007).

Molecular target: HIV-1 protease (Human immunodeficiency virus, UniProt O90783)
Experiment: Inhibition Assay
From the text: Inhibition assay using HIV protease and Sulfonamide compounds.

Sequence of HIV-1 protease (O90783 whole entry): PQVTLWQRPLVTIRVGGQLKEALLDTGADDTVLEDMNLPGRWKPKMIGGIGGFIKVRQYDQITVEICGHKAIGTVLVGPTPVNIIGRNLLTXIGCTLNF

Row | SMILES | Ki [nM]
1 | CNC(=O)CCC(=O)N[C@@H](Cc1ccccc1)[C@H](O)CN(C[C@@H](C)O)S(=O)(=O)c1ccco1 [CARB-KB49] | 540
2 | CNC(=O)CCC(=O)N[C@@H](Cc1ccccc1)[C@H](O)CN(C[C@@H](C)O)S(=O)(=O)c1cccc(OC)c1 [CARB-KB32] | 760
3 | CC(=N[C@H]1c2ccccc2C[C@H]1O)[C@@H](Cc1ccccc1)C[C@H](O)CN1CCN(Cc2cccnc2)C[C@H]1C(=O)NC(C)(C)C [IDV] | 0.18
4 | COc1cc(C(=O)N[C@@H](Cc2ccccc2)[C@H](O)CN(C[C@H]2CCCO2)S(=O)(=O)c2cn(C)cn2)ccn1 [CARB-AC97] | 910
5 | COc1cccc(S(=O)(=O)N(CC2CCCO2)C[C@@H](O)[C@H](Cc2ccccc2)NC(=O)c2ccnc(OC)c2)c1 (stereo partly specified) [CARB-AD08] | 110
6 | C[C@@H](O)CN(C[C@@H](O)[C@H](Cc1ccccc1)NC(=O)CC1C=CCC1)S(=O)(=O)c1ccco1 (stereo partly specified) [CARB-KB51] | 260
